Experimental data published in the supplement of paper PMC8882468.

What follows are compounds tested on HCI-012 (organoid from a breast cancer xenograft) (assay: CTG-3D luminescence at 96 h relative to day-0 seeding control (ratio to day 0); higher = more growth / less cytotoxicity; PDxO 3D drug screen (set 2), 96 h, CTG-3D normalised to day-0 seeding control.). Details: 1 µM; days in culture: 214.

Point of comparison: `CC(=O)c1c(C)c2cnc(Nc3ccc(N4CCNCC4)cn3)nc2n(C2CCCC2)c1=O` [palbociclib], “CTG-3D luminescence at 96 h” value 2.63. Against it:
- CCOc1ccn(-c2ccc(F)cc2)c(=O)c1C(=O)Nc1ccc(Oc2ccnc(N)c2Cl)c(F)c1 [ASLAN002] — lower, 1.55
- C[C@@H](Nc1cc(F)cc(F)c1)c1cc(C(=O)N(C)C)cc2c(=O)cc(N3CCOCC3)oc12 [AZD-8186] — lower, 1.61
- COc1cccc2c1C(=O)c1c(O)c3c(c(O)c1C2=O)C[C@@](O)(C(=O)CO)C[C@@H]3O[C@H]1C[C@H](N)[C@@H](O)[C@H](C)O1 [epirubicin] — lower, 0.0452
- O=C(c1cc(Cc2n[nH]c(=O)c3ccccc23)ccc1F)N1CCN(C(=O)C2CC2)CC1 [olaparib] — lower, 1.68

Same assay, conditions: 1 µM; days in culture: 243

Point of comparison: `CC(=O)c1c(C)c2cnc(Nc3ccc(N4CCNCC4)cn3)nc2n(C2CCCC2)c1=O` [palbociclib], “CTG-3D luminescence at 96 h” value 2.27. Against it:
- CCOc1ccn(-c2ccc(F)cc2)c(=O)c1C(=O)Nc1ccc(Oc2ccnc(N)c2Cl)c(F)c1 [ASLAN002] — lower, 2.19
- C[C@@H](Nc1cc(F)cc(F)c1)c1cc(C(=O)N(C)C)cc2c(=O)cc(N3CCOCC3)oc12 [AZD-8186] — lower, 1.56
- COc1cccc2c1C(=O)c1c(O)c3c(c(O)c1C2=O)C[C@@](O)(C(=O)CO)C[C@@H]3O[C@H]1C[C@H](N)[C@@H](O)[C@H](C)O1 [epirubicin] — lower, 0.0532
- O=C(c1cc(Cc2n[nH]c(=O)c3ccccc23)ccc1F)N1CCN(C(=O)C2CC2)CC1 [olaparib] — lower, 1.49

Same assay, conditions: 1 µM; days in culture: 256

Point of comparison: `C[C@@H](Nc1cc(F)cc(F)c1)c1cc(C(=O)N(C)C)cc2c(=O)cc(N3CCOCC3)oc12` [AZD-8186], “CTG-3D luminescence at 96 h” value 1.35. Against it:
- CCOc1ccn(-c2ccc(F)cc2)c(=O)c1C(=O)Nc1ccc(Oc2ccnc(N)c2Cl)c(F)c1 [ASLAN002] — higher, 1.71
- COc1cccc2c1C(=O)c1c(O)c3c(c(O)c1C2=O)C[C@@](O)(C(=O)CO)C[C@@H]3O[C@H]1C[C@H](N)[C@@H](O)[C@H](C)O1 [epirubicin] — lower, 0.059
- CC(=O)c1c(C)c2cnc(Nc3ccc(N4CCNCC4)cn3)nc2n(C2CCCC2)c1=O [palbociclib] — higher, 2.13
- O=C(c1cc(Cc2n[nH]c(=O)c3ccccc23)ccc1F)N1CCN(C(=O)C2CC2)CC1 [olaparib] — higher, 2.12

Same assay, conditions: 1 µM; days in culture: 284

Point of comparison: `O=C(c1cc(Cc2n[nH]c(=O)c3ccccc23)ccc1F)N1CCN(C(=O)C2CC2)CC1` [olaparib], “CTG-3D luminescence at 96 h” value 1.42. Against it:
- CCOc1ccn(-c2ccc(F)cc2)c(=O)c1C(=O)Nc1ccc(Oc2ccnc(N)c2Cl)c(F)c1 [ASLAN002] — higher, 2.18
- C[C@@H](Nc1cc(F)cc(F)c1)c1cc(C(=O)N(C)C)cc2c(=O)cc(N3CCOCC3)oc12 [AZD-8186] — higher, 1.45
- COc1cccc2c1C(=O)c1c(O)c3c(c(O)c1C2=O)C[C@@](O)(C(=O)CO)C[C@@H]3O[C@H]1C[C@H](N)[C@@H](O)[C@H](C)O1 [epirubicin] — lower, 0.0294
- CC(=O)c1c(C)c2cnc(Nc3ccc(N4CCNCC4)cn3)nc2n(C2CCCC2)c1=O [palbociclib] — higher, 1.9

Same assay, conditions: 10 µM; days in culture: 214

Point of comparison: `CC(=O)c1c(C)c2cnc(Nc3ccc(N4CCNCC4)cn3)nc2n(C2CCCC2)c1=O` [palbociclib], “CTG-3D luminescence at 96 h” value 2.66. Against it:
- CCOc1ccn(-c2ccc(F)cc2)c(=O)c1C(=O)Nc1ccc(Oc2ccnc(N)c2Cl)c(F)c1 [ASLAN002] — higher, 2.81
- C[C@@H](Nc1cc(F)cc(F)c1)c1cc(C(=O)N(C)C)cc2c(=O)cc(N3CCOCC3)oc12 [AZD-8186] — lower, 1.53
- COc1cccc2c1C(=O)c1c(O)c3c(c(O)c1C2=O)C[C@@](O)(C(=O)CO)C[C@@H]3O[C@H]1C[C@H](N)[C@@H](O)[C@H](C)O1 [epirubicin] — lower, 0.0186
- O=C(c1cc(Cc2n[nH]c(=O)c3ccccc23)ccc1F)N1CCN(C(=O)C2CC2)CC1 [olaparib] — lower, 0.943

Same assay, conditions: 10 µM; days in culture: 243

Point of comparison: `CCOc1ccn(-c2ccc(F)cc2)c(=O)c1C(=O)Nc1ccc(Oc2ccnc(N)c2Cl)c(F)c1` [ASLAN002], “CTG-3D luminescence at 96 h” value 3.71. Against it:
- C[C@@H](Nc1cc(F)cc(F)c1)c1cc(C(=O)N(C)C)cc2c(=O)cc(N3CCOCC3)oc12 [AZD-8186] — lower, 1.4
- COc1cccc2c1C(=O)c1c(O)c3c(c(O)c1C2=O)C[C@@](O)(C(=O)CO)C[C@@H]3O[C@H]1C[C@H](N)[C@@H](O)[C@H](C)O1 [epirubicin] — lower, 0.0739
- CC(=O)c1c(C)c2cnc(Nc3ccc(N4CCNCC4)cn3)nc2n(C2CCCC2)c1=O [palbociclib] — lower, 2.37
- O=C(c1cc(Cc2n[nH]c(=O)c3ccccc23)ccc1F)N1CCN(C(=O)C2CC2)CC1 [olaparib] — lower, 1.74

Same assay, conditions: 10 µM; days in culture: 256

Point of comparison: `COc1cccc2c1C(=O)c1c(O)c3c(c(O)c1C2=O)C[C@@](O)(C(=O)CO)C[C@@H]3O[C@H]1C[C@H](N)[C@@H](O)[C@H](C)O1` [epirubicin], “CTG-3D luminescence at 96 h” value 0.0309. Against it:
- CCOc1ccn(-c2ccc(F)cc2)c(=O)c1C(=O)Nc1ccc(Oc2ccnc(N)c2Cl)c(F)c1 [ASLAN002] — higher, 1.78
- C[C@@H](Nc1cc(F)cc(F)c1)c1cc(C(=O)N(C)C)cc2c(=O)cc(N3CCOCC3)oc12 [AZD-8186] — higher, 0.936
- CC(=O)c1c(C)c2cnc(Nc3ccc(N4CCNCC4)cn3)nc2n(C2CCCC2)c1=O [palbociclib] — higher, 1.8
- O=C(c1cc(Cc2n[nH]c(=O)c3ccccc23)ccc1F)N1CCN(C(=O)C2CC2)CC1 [olaparib] — higher, 1.26

Same assay, conditions: 10 µM; days in culture: 284

Point of comparison: `O=C(c1cc(Cc2n[nH]c(=O)c3ccccc23)ccc1F)N1CCN(C(=O)C2CC2)CC1` [olaparib], “CTG-3D luminescence at 96 h” value 1.42. Against it:
- CCOc1ccn(-c2ccc(F)cc2)c(=O)c1C(=O)Nc1ccc(Oc2ccnc(N)c2Cl)c(F)c1 [ASLAN002] — higher, 2.98
- C[C@@H](Nc1cc(F)cc(F)c1)c1cc(C(=O)N(C)C)cc2c(=O)cc(N3CCOCC3)oc12 [AZD-8186] — higher, 2.64
- COc1cccc2c1C(=O)c1c(O)c3c(c(O)c1C2=O)C[C@@](O)(C(=O)CO)C[C@@H]3O[C@H]1C[C@H](N)[C@@H](O)[C@H](C)O1 [epirubicin] — lower, 0.0662
- CC(=O)c1c(C)c2cnc(Nc3ccc(N4CCNCC4)cn3)nc2n(C2CCCC2)c1=O [palbociclib] — higher, 2.78
